Laboratory results reported in patent US6383762B1, “Methods of obtaining compounds that interact with a human serotonin (5-HT2) receptor” (Synaptic Pharmaceutical Corporation, priority 1989, dated 2002).

Experiments:
[1] = molecular target: T1, 5-HT2 receptor in human cortical membranes (Homo sapiens, UniProt P28223); settings: human cortex; footnote 1 Lyon et al. 1987, footnote 2 Hoyer et al. 1986; cited from earlier work
T1 construct: the 5-HT2 receptor in human cortical membranes; host or cells: human cortical membranes

[2] = molecular target: T2, 5-HT2 receptor in rat cortical membranes (Rattus norvegicus, UniProt P14842); settings: rat cortex; Hoyer et al. 1986; cited from earlier work
T2 construct: rather than in rat cortical membranes; host or cells: rat cortical membranes

[3] = molecular target: T3, cloned human 5-HT2 receptor (Homo sapiens, UniProt P28223); assay: Competition for 3H-Ketanserin binding, cloned human 5-HT2 receptor in stably transfected Ltk- cell membranes; settings: cloned human 5-HT2 receptor expressed in Ltk- cells; 3H-Ketanserin radioligand
T3 construct: Clone 6B contained the entire coding region for a 5-HT2 receptor; expressed in transfected cells
Method: (§1) The total reaction volume was 0.25 ml.
(§2) Subsequent to analysis in transiently transfected cells, the 5-HT2 clone was expressed as a stable transfectant in mouse Ltk^− cells. Further characterization was done on these cells as described above.
Data were analyzed by computer-assisted analysis (Accufit Competition; Lundon Software; Chagrin Falls, Ohio).
(§3) Full saturation analysis was performed on stable cell lines expressing the gene. […] The binding constants were evaluated by computer-assisted nonlinear regression using Accufit (Lundon Software, Chagrin Falls, Ohio). […] Further characterization was accomplished by performing competition experiments for a series of drugs. Analysis of the competition data was accomplished using the computer-assisted nonlinear regression program Accucomp.

human 5-HT2 receptor [4] = molecular target: T4, human 5-HT2 receptor (Homo sapiens, UniProt P28223); assay: Saturation analysis of 3H-Ketanserin binding to stably transfected Ltk- cells; design: Clone 6B contained the entire coding region for a 5-HT2 receptor; expressed in transfected cells
Method: as §1, §2, §3

human 5-HT2 receptor [5] = molecular target: T4, human 5-HT2 receptor; assay: Radioligand binding to transiently transfected Cos-7 cell membranes; settings: transiently transfected Cos-7 cells

T4 sequence (P28223 whole entry): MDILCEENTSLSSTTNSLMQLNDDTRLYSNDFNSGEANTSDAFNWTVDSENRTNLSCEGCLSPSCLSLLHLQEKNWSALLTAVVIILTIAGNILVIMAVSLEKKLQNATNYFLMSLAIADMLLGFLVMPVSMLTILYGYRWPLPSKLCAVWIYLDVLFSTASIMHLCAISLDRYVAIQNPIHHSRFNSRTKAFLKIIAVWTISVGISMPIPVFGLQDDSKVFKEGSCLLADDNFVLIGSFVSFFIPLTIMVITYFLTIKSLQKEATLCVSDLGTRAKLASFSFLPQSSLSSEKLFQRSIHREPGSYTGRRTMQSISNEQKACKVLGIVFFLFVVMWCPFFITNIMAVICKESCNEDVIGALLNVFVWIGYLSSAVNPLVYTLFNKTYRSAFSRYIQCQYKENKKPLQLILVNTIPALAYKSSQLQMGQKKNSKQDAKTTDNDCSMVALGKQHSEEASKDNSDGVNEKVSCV
T3 sequence (P28223 whole entry): as above
T1 sequence (P28223 whole entry): as above
T2 sequence (P14842 whole entry): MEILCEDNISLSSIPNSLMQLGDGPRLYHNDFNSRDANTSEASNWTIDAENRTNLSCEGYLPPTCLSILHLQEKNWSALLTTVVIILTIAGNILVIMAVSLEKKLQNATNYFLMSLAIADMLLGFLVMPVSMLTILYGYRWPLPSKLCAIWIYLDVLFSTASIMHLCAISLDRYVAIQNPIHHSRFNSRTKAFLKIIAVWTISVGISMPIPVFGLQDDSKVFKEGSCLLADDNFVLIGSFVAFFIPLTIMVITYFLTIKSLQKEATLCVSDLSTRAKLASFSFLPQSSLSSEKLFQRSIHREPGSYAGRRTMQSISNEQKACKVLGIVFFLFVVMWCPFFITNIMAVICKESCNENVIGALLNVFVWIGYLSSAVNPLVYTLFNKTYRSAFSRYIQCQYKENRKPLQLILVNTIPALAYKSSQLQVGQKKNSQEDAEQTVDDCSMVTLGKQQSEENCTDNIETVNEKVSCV

In the case of NCCc1c[nH]c2ccc(C(N)=O)cc12 [5-CT], the Ki [1] is given as 813 nM, the Ki [2] is given as 20000 nM and the Ki [3] is given as 3030 nM.
In the case of CN1C[C@@H](NS(=O)(=O)N(C)C)C[C@@H]2c3cccc4c3c(cn4C)C[C@H]21 [MESULERGINE], the Ki [1] is listed as 158 nM and the Ki [3] is listed as 146 ± 5 nM.
With [3H]C([3H])(N1CCC(C(=O)c2ccc(F)cc2)CC1)C([3H])([3H])n1c(=O)[nH]c2ccccc2c1=O [^3H-Ketanserin] the Bmax (human 5-HT2 receptor [4]; FIG. 4 experiment, stably transfected Ltk- cells) was 0.602 pmole/mg protein, the Bmax (human 5-HT2 receptor [4]; Ltk- cells transfected with pMO5-6B) was 0.602±0.07 pm/mg protein and the “binding affinity in words” value (human 5-HT2 receptor [5]) was “high affinity”. The estimated site density (human 5-HT2 receptor [5]) was 0.95-1.6 pm/mg protein.
